Measured values: patent US8940717B2, “Plant disease controlling composition and method for controlling plant disease” (Sumitomo Chemical Company, Limited, priority 2010, dated 2015)
Where two headings read alike, the source gives them in different places.

Test system: gray mold fungus (Botrytis cinerea)
Assay: Cucumber leaf disk preventive test against gray mold
Type: in vivo
Conditions: for pest or weed control at 0.5 ppm / pest or weed control at 5 ppm: Botrytis cinerea, foliar, 96 h, read-out: preventive value (%)
Description: To a SUS beaker are added 30 parts of the present compound (racemate), 5 parts of Soprophor FLK (polyoxyethylene tristyrylphenyl ether phosphate, produced by Rhodia Nicca Ltd.), 65 parts of ion-exchange water and 150 parts of glass beads (1.0 mm diameter). The mixture is subjected to grinding at a velocity of 1000 rpm with cooling to 10° C., and thereafter the glass beads are separated, so as to obtain a flowable formulation comprising the present compound (racemate).
True leaf of cucumber is punched out with cork borer to 13 mm in diameter to prepare a leaf disk. In 24 well microwell plate that is dispensed with 1 ml 0.8% water agar, the leaf disk is placed such that the upper side of the leaf is in an upward direction. Thereto is added 20 micro liter a testing solution prepared by mixing the flowable formulation of the present compound (racemate) prepared by the above procedure and a commercial wettable powder of fludioxonil or chlorothalonil to a predetermined concentration to treat the leaf disk.
After confirming that the testing medical solution is dried, conidium of gray mold fungus (Botrytis cinerea) is suspended into potato dextrose broth (DIFCO) in a density of about 10^5 conidium/mL and is then subjected to a spray inoculation. After leaving to stand the leaf disk in a growth chamber set up at 15° C. for four days, an onset area on the leaf is measured and then calculated an onset area rate (hereinafter, referred to as an onset area rate of treated group).
The same operation is carried out with 20 micro liter water instead of 20 micro liter a testing medicine solution to calculate an onset area rate (hereinafter, referred to an onset area rate of non-treated group).
A preventive value is calculated from the above onset area rate of treated group and the onset area rate of non-treated group by the following equation: Preventive value (%)=100×(A−B)/A
A: an onset area rate of treated group
B: an onset area rate of non-treated group
The same operations as described in Test Example 1 are carried out with cyflufenamid, diethofencarb, dithianon, fluazinam, flusulfamide, fosetyl-Al, metrafenon, penflufen, phthalide, sedaxane, spiroxamine or tebufloquin, instead of fludioxonil or chlorothalonil, so as to calculate respective preventive values.
Also for comparison, the same operations as described in Test Example 1 are carried out with the exception that the testing medicine solution is substituted with a predetermined concentration of each dimethyl sulfoxide solution of the present compound (racemate), cyflufenamid, diethofencarb, dithianon, fluazinam, flusulfamide, fosetyl-Al, metrafenon, penflufen, phthalide, sedaxane, spiroxamine or tebufloquin, so as to calculate respective preventive values.
For comparison, the same operations as described in Test Example 1 are carried out with the exception that the testing medicine solution is substituted with a predetermined concentration of each dimethyl sulfoxide solution of fludioxonil or chlorothalonil, so as to calculate a preventive value.

[1] = partner fungicide alone 0.5 ppm, dimethyl sulfoxide solution, cucumber leaf disk, 15° C., four days
[2] = partner fungicide alone 5.0 ppm, dimethyl sulfoxide solution, cucumber leaf disk, 15° C., four days

SMILES | pest or weed control at 0.5 ppm [1] [%] | pest or weed control at 5 ppm [2] [%] | preventive value (%) [1] [%] | preventive value (%) [2] [%] | further results
N#Cc1c(Cl)c(Cl)c(Cl)c(C#N)c1Cl [chlorothalonil] | 15 | 45 |  |  | 
O=C(Cc1ccccc1)N/C(=N\OCC1CC1)c1c(C(F)(F)F)ccc(F)c1F [cyflufenamid] | 10 | 15 |  |  | 
CCOc1ccc(NC(=O)OC(C)C)cc1OCC [diethofencarb] | 0 | 0 |  |  | 
N#Cc1sc2c(=O)c3ccccc3c(=O)c=2sc1C#N [dithianon] | 15 | 20 |  |  | 
O=[N+]([O-])c1cc(C(F)(F)F)c(Cl)c([N+](=O)[O-])c1Nc1ncc(C(F)(F)F)cc1Cl [fluazinam] | 47 | 52 |  |  | 
N#Cc1c[nH]cc1-c1cccc2c1OC(F)(F)O2 [fludioxonil] |  |  |  |  | pest or weed control at 0.5 ppm: 45%; pest or weed control at 5 ppm: 57%
O=[N+]([O-])c1ccc(NS(=O)(=O)c2ccc(Cl)c(C(F)(F)F)c2)c(Cl)c1 [flusulfamide] |  |  |  |  | pest or weed control at 0.5 ppm: 15%; pest or weed control at 5 ppm: 20%
CCO[PH](=O)O [fosetyl-Al] |  |  | 15 | 20 | 
COc1cc(C)c(C(=O)c2c(OC)ccc(Br)c2C)c(OC)c1OC [metrafenon] |  |  | 10 | 15 | 
Cc1nn(C)c(F)c1C(=O)Nc1ccccc1C(C)CC(C)C (stereo not shown) [penflufen] |  |  | 10 | 15 | 
O=C1OCc2ccccc21 [phthalide] | 10 | 15 |  |  | 
Cn1cc(C(=O)Nc2ccccc2C2CC2C2CC2)c(C(F)F)n1 (stereo not shown) [sedaxane] |  |  | 20 | 40 | 
CCCN(CC)CC1COC2(CCC(C(C)(C)C)CC2)O1 (stereo not shown) [spiroxamine] | 10 | 15 |  |  | 
CC(=O)Oc1c(C)c(C)nc2c(F)cc(C(C)(C)C)cc12 [tebufloquin] |  |  | 10 | 15 | 
